Assay results from ChEMBL document CHEMBL3885861, “Open TG-GATES”.

Species on record: Rattus norvegicus
Assay: Open TG-GATES - Regimen: Daily Repeat
Format: toxicity, organism-based, Sprague-Dawley
Design: regimen Daily Repeat, gender Male, age 6 weeks
Details: in vivo, po, route gavage; for Eos / Fbg / Hb / Ht / Lym / MCHC / MCV / Mono / Neu / PT / Plat / RBC / Ret / WBC / Bas: tissue Blood; for ALP / AST / BUN / CRE / Ca / Cl / DBIL / GLC / IP / K / LDH / Na / PL / RALB / TBIL / TC / TG / TP / gamma-GTP / ALT: tissue Plasma
[1] = 300 mg/kg, 72 h, dose level Middle, time 3 day
[2] = 300 mg/kg, […], dose level Middle, time 7 day
[3] = 300 mg/kg, […], dose level Middle, time 14 day
[4] = 300 mg/kg, […], dose level Middle, time 28 day
[5] = 1000 mg/kg, 72 h, dose level High, time 3 day
[6] = 1000 mg/kg, […], dose level High, time 7 day
[7] = 1000 mg/kg, […], dose level High, time 14 day
[8] = 1000 mg/kg, […], dose level High, time 28 day

O=C(O)c1cccnc1 [NIACIN] gave an Eos [1] of 1%, a Fbg [1] of 314.2 mg/dL and a Hb [1] of 13.3 g/dL. For the same molecule, the Ht [1] was 40.2%, the Lym [1] was 75.2% and the MCHC [1] was 33%. For the same molecule, the MCV [1] was 63.4 fL, the Mono [1] was 3.6% and the Neu [1] was 19%. The PT [1] was 16 s, the Plat [1] was 132.1 x10_4/uL and the RBC [1] was 635.6 x10_4/ul. For the same molecule, the Ret [1] was 7.2%, the WBC [1] was 106.7 x10_2/uL and the ALP [1] was 1606.8 IU/L. The AST [1] was 74.6 IU/L, the BUN [1] was 16.4 mg/dL and the CRE [1] was 0.2 mg/dL. It also gave a Ca [1] of 10.8 mg/dL, a Cl [1] of 104 meq/L and a DBIL [1] of 0 mg/dL. It also gave a GLC [1] of 191.6 mg/dL, an IP [1] of 8.2 mg/dL and a K [1] of 4.1 meq/L. It also gave an LDH [1] of 165.8 IU/L, a Na [1] of 139.6 meq/L and a PL [1] of 152.8 mg/dL. It also gave an RALB [1] of 3 g/dL, a TBIL [1] of 0 mg/dL and a TC [1] of 73.2 mg/dL. For the same molecule, the TG [1] was 136.2 mg/dL, the TP [1] was 5.6 g/dL and the gamma-GTP [1] was 1.2 IU/L. The TERMINAL_BW [2] was 273.2 g, the TERMINAL_BW [3] was 321.5 g and the TERMINAL_BW [4] was 396.3 g. It also gave a Bas [2] of 0%, an Eos [2] of 1% and a Fbg [2] of 325.8 mg/dL. It also gave a Hb [2] of 13.8 g/dL, a Ht [2] of 41.4% and a Lym [2] of 75%. The MCHC [2] was 33.4%, the MCV [2] was 63.5 fL and the Mono [2] was 3.4%. For the same molecule, the Neu [2] was 19.2%, the PT [2] was 15.6 s and the Plat [2] was 112.8 x10_4/uL. For the same molecule, the RBC [2] was 652.2 x10_4/ul, the Ret [2] was 6% and the WBC [2] was 104.1 x10_2/uL. It also gave a Bas [3] of 0%, an Eos [3] of 0.6% and a Fbg [3] of 325.2 mg/dL. The Ht [3] was 42.2%, the Lym [3] was 72.6% and the MCHC [3] was 33.7%. For the same molecule, the MCV [3] was 59.8 fL, the Mono [3] was 3.4% and the Neu [3] was 21.8%. The PT [3] was 15.5 s, the Plat [3] was 109.4 x10_4/uL and the RBC [3] was 705.8 x10_4/ul. It also gave a Ret [3] of 4.7%, a WBC [3] of 119.8 x10_2/uL and a Bas [4] of 0%. For the same molecule, the Eos [4] was 1.2%, the Fbg [4] was 336.6 mg/dL and the Hb [4] was 15 g/dL. The Ht [4] was 42.6%, the Lym [4] was 74.8% and the MCHC [4] was 35.3%. For the same molecule, the MCV [4] was 56 fL, the Mono [4] was 2.8% and the PT [4] was 16.1 s. The Plat [4] was 100.4 x10_4/uL, the RBC [4] was 761.2 x10_4/ul and the Ret [4] was 2.6%. The WBC [4] was 105.7 x10_2/uL, the ALP [2] was 1661 IU/L and the ALT [2] was 47.8 IU/L. The AST [2] was 76 IU/L, the BUN [2] was 17.6 mg/dL and the CRE [2] was 0.1 mg/dL. It also gave a Ca [2] of 10.7 mg/dL, a Cl [2] of 105 meq/L and a DBIL [2] of 0 mg/dL. It also gave a GLC [2] of 189 mg/dL, an IP [2] of 7.4 mg/dL and a K [2] of 4.3 meq/L. The LDH [2] was 138.4 IU/L, the Na [2] was 139.8 meq/L and the PL [2] was 161.8 mg/dL. For the same molecule, the RALB [2] was 2.9 g/dL, the TBIL [2] was 0 mg/dL and the TC [2] was 79.6 mg/dL. For the same molecule, the TG [2] was 135.8 mg/dL, the TP [2] was 5.5 g/dL and the gamma-GTP [2] was 1.4 IU/L. It also gave an ALP [3] of 1495.2 IU/L, an ALT [3] of 39.6 IU/L and an AST [3] of 68.8 IU/L. The CRE [3] was 0.2 mg/dL, the Ca [3] was 10.7 mg/dL and the Cl [3] was 104.4 meq/L. The DBIL [3] was 0 mg/dL, the GLC [3] was 201 mg/dL and the IP [3] was 6.8 mg/dL. The K [3] was 3.9 meq/L, the LDH [3] was 166.4 IU/L and the Na [3] was 137.6 meq/L. For the same molecule, the PL [3] was 162.6 mg/dL, the RALB [3] was 3.1 g/dL and the TBIL [3] was 0.006 mg/dL. It also gave a TC [3] of 77.6 mg/dL, a TG [3] of 156 mg/dL and a TP [3] of 5.8 g/dL. It also gave a gamma-GTP [3] of 1.8 IU/L, an ALP [4] of 1059.8 IU/L and an ALT [4] of 41.4 IU/L. For the same molecule, the AST [4] was 71.2 IU/L, the BUN [4] was 16 mg/dL and the CRE [4] was 0.2 mg/dL. It also gave a Ca [4] of 10.4 mg/dL, a Cl [4] of 107 meq/L and a DBIL [4] of 0 mg/dL. The GLC [4] was 193.6 mg/dL, the IP [4] was 6.3 mg/dL and the K [4] was 4.4 meq/L. For the same molecule, the LDH [4] was 149.2 IU/L, the Na [4] was 143 meq/L and the PL [4] was 140.4 mg/dL. For the same molecule, the RALB [4] was 3 g/dL, the TBIL [4] was 0.008 mg/dL and the TC [4] was 69.4 mg/dL. It also gave a TG [4] of 126.6 mg/dL, a TP [4] of 6.1 g/dL and a gamma-GTP [4] of 2.8 IU/L. It also gave a TERMINAL_BW [5] of 239.5 g, a Bas [5] of 0% and an Eos [5] of 0.8%. The Fbg [5] was 319.4 mg/dL, the Hb [5] was 13.5 g/dL and the Ht [5] was 40.1%. It also gave a Lym [5] of 73.6%, an MCHC [5] of 33.5% and an MCV [5] of 62.3 fL. It also gave a Mono [5] of 3.8%, a Plat [5] of 119.3 x10_4/uL and an RBC [5] of 645 x10_4/ul. It also gave a Ret [5] of 5.7%, a WBC [5] of 116 x10_2/uL and an ALP [5] of 1534.6 IU/L. It also gave an ALT [5] of 48.8 IU/L, an AST [5] of 77.8 IU/L and a BUN [5] of 17.2 mg/dL. For the same molecule, the CRE [5] was 0.2 mg/dL, the Ca [5] was 10.9 mg/dL and the Cl [5] was 104.2 meq/L. The DBIL [5] was 0 mg/dL, the GLC [5] was 187.6 mg/dL and the IP [5] was 8.5 mg/dL. The K [5] was 4.1 meq/L, the LDH [5] was 176.6 IU/L and the Na [5] was 139.4 meq/L. For the same molecule, the PL [5] was 148.8 mg/dL, the RALB [5] was 3.1 g/dL and the TBIL [5] was 0 mg/dL. It also gave a TC [5] of 73.4 mg/dL, a TG [5] of 97.6 mg/dL and a TP [5] of 5.6 g/dL. It also gave a gamma-GTP [5] of 1.2 IU/L, a TERMINAL_BW [6] of 270 g and a TERMINAL_BW [7] of 315.4 g. It also gave a TERMINAL_BW [8] of 425.7 g, a Bas [6] of 0% and an Eos [6] of 0.8%. For the same molecule, the Fbg [6] was 325.4 mg/dL, the Hb [6] was 13.6 g/dL and the Ht [6] was 40.6%. It also gave a Lym [6] of 77.2%, an MCHC [6] of 33.5% and an MCV [6] of 61.6 fL. It also gave a Mono [6] of 3.4%, a Neu [6] of 16.8% and a PT [6] of 16 s. The Plat [6] was 107.2 x10_4/uL, the RBC [6] was 659.8 x10_4/ul and the Ret [6] was 6.7%. The WBC [6] was 127.7 x10_2/uL, the Bas [7] was 0% and the Eos [7] was 0.6%. It also gave a Fbg [7] of 295.4 mg/dL, a Hb [7] of 13.9 g/dL and a Ht [7] of 41.5%. It also gave a Lym [7] of 75.2%, an MCHC [7] of 33.6% and a Mono [7] of 2.4%. For the same molecule, the Neu [7] was 19.8%, the PT [7] was 15.2 s and the Plat [7] was 114.8 x10_4/uL. The RBC [7] was 684.2 x10_4/ul, the Ret [7] was 4.6% and the WBC [7] was 131.3 x10_2/uL. It also gave a Bas [8] of 0%, an Eos [8] of 1% and a Fbg [8] of 310.8 mg/dL. It also gave a Hb [8] of 14.8 g/dL, a Ht [8] of 42.1% and a Lym [8] of 75.6%. For the same molecule, the MCHC [8] was 35.2%, the MCV [8] was 56.4 fL and the Mono [8] was 3.6%. It also gave a Neu [8] of 18.2%, a PT [8] of 15.8 s and a Plat [8] of 88.1 x10_4/uL. It also gave an RBC [8] of 747.2 x10_4/ul, a Ret [8] of 2.7% and a WBC [8] of 127.6 x10_2/uL. The ALP [6] was 1693.6 IU/L, the ALT [6] was 45.6 IU/L and the AST [6] was 77.6 IU/L. The BUN [6] was 15.8 mg/dL, the CRE [6] was 0.2 mg/dL and the Ca [6] was 10.6 mg/dL. The Cl [6] was 104.8 meq/L, the DBIL [6] was 0 mg/dL and the GLC [6] was 196.6 mg/dL. The IP [6] was 7.5 mg/dL, the K [6] was 4.5 meq/L and the LDH [6] was 137.2 IU/L. For the same molecule, the Na [6] was 139 meq/L, the PL [6] was 142.4 mg/dL and the RALB [6] was 3 g/dL. For the same molecule, the TBIL [6] was 0.004 mg/dL, the TC [6] was 69.2 mg/dL and the TG [6] was 107 mg/dL. The TP [6] was 5.6 g/dL, the gamma-GTP [6] was 1.8 IU/L and the ALP [7] was 1458 IU/L. It also gave an ALT [7] of 44.8 IU/L, an AST [7] of 86.8 IU/L and a BUN [7] of 17.2 mg/dL. It also gave a CRE [7] of 0.2 mg/dL, a Ca [7] of 10.5 mg/dL and a Cl [7] of 105.2 meq/L. The DBIL [7] was 0 mg/dL, the GLC [7] was 195.6 mg/dL and the IP [7] was 7 mg/dL. The K [7] was 4.1 meq/L, the LDH [7] was 140.8 IU/L and the Na [7] was 138.8 meq/L. It also gave a PL [7] of 150.8 mg/dL, an RALB [7] of 3.1 g/dL and a TBIL [7] of 0.012 mg/dL. For the same molecule, the TC [7] was 67.2 mg/dL, the TG [7] was 163.6 mg/dL and the TP [7] was 5.7 g/dL. It also gave a gamma-GTP [7] of 1.8 IU/L, an ALP [8] of 1046.8 IU/L and an ALT [8] of 47 IU/L. The AST [8] was 80.8 IU/L, the BUN [8] was 17.8 mg/dL and the CRE [8] was 0.2 mg/dL. It also gave a Ca [8] of 10.5 mg/dL, a Cl [8] of 104 meq/L and a DBIL [8] of 0 mg/dL. The GLC [8] was 196.6 mg/dL, the IP [8] was 7.1 mg/dL and the K [8] was 4.2 meq/L. For the same molecule, the LDH [8] was 157.4 IU/L, the Na [8] was 143.4 meq/L and the PL [8] was 152 mg/dL. For the same molecule, the RALB [8] was 3 g/dL, the TBIL [8] was 0.01 mg/dL and the TC [8] was 68.4 mg/dL. The TG [8] was 184 mg/dL, the TP [8] was 5.8 g/dL and the gamma-GTP [8] was 2.4 IU/L.
